Results taken from patent publication US11459332B2, “Substituted 2-azabicyclo[3.1.0]hexanes as TRK kinases inhibitors” (FOCHON BIOSCIENCES, LTD., priority 2018, dated 2022).

Tests used:
Assay type in all cases: cell-based
AFAP1-TRKB = target: T1, AFAP1-TRKB (Homo sapiens, UniProt Q16620); assay: Engineered Ba/F3 cell proliferation inhibition (MTS), AFAP1-TRKB; settings: Ba/F3-AFAP1-TRKB cells, 72 h
T1 construct: AFAP1 (fusion partner, N-terminal part); expressed in transfected cells; the other entry of the earlier key: AFAP1 (Q8N556, Actin filament-associated protein 1)
Source text: (§1) MTS testing kit was purchased from Promega (Madison, Wis., USA). The RPMI-1640, Fetal bovine serum and Penicillin-Streptomycin were purchased from Gibco (San Francisco, Calif., USA). Dimethyl sulfoxide (DMSO) and Puromycin were purchased from Sigma (St. Louis, Mo., USA). Mouse interleukin-3 (IL-3) was purchased from Cell signaling Technology (Boston, Mass., USA).
(§2) To investigate whether a compound is able to inhibit the activity of TRK fusion mutation in cells, a mechanism-based assay using engineered Ba/F3 cell lines stably overexpressing oncogenic rearrangement or gene mutation of TRK (TPM3-TRKA, TPM3-TRKA-G595R, AFAP1-TRKB, ETV6-TRKC and ETV6-TRKC-G623R) were developed. In this assay, inhibition of TRK fusion mutation was detected by the cell proliferation inhibition of engineered Ba/F3 cells. Engineered Ba/F3 cells were cultured in culture flasks to 40-80% confluence in RPMI-1640 supplemented with 10% fetal bovine serum, 2 ug/mL puromycin. Cells were collected and plated onto 96-well plates at desired cell density (Ba/F3-TPM3-TRKA: 3×10^4/mL, Ba/F3-TPM3-TRKA-G595R: 1×10^5/mL, Ba/F3-AFAP1-TRKB: 1×10^5/mL, Ba/F3-ETV6-TRKC: 3×10^4/mL, Ba/F3-ETV6-TRKC-G623R: 3×10^4/mL). Plates were incubated at 37° C., with 5% CO2 for 4 h. […] The absorbance was measured at 490 nm and 650 nm (reference wavelength). IC50 was calculated using GraphPad Prism 5.0 software.

TPM3-TRKA = target: T2, TPM3-TRKA (Homo sapiens, UniProt P04629); assay: Engineered Ba/F3 cell proliferation inhibition (MTS), TPM3-TRKA; settings: Ba/F3-TPM3-TRKA cells, 72 h
T2 construct: TPM3 (fusion partner, N-terminal part); expressed in transfected cells; the other entry of the earlier key: TPM3 (P06753, Tropomyosin alpha-3 chain)
Source text: as §1
(§3) To investigate whether a compound is able to inhibit the activity of TRK fusion mutation in cells, a mechanism-based assay using engineered Ba/F3 cell lines stably overexpressing oncogenic rearrangement or gene mutation of TRK (TPM3-TRKA, TPM3-TRKA-G595R, AFAP1-TRKB, ETV6-TRKC and ETV6-TRKC-G623R) were developed. In this assay, inhibition of TRK fusion mutation was detected by the cell proliferation inhibition of engineered Ba/F3 cells. Engineered Ba/F3 cells were cultured in culture flasks to 40-80% confluence in RPMI-1640 supplemented with 10% fetal bovine serum, 2 ug/mL puromycin. Cells were collected and plated onto 96-well plates at desired cell density (Ba/F3-TPM3-TRKA: 3×10^4/mL, Ba/F3-TPM3-TRKA-G595R: 1×10^5/mL, Ba/F3-AFAP1-TRKB: 1×10^5/mL, Ba/F3-ETV6-TRKC: 3×10^4/mL, Ba/F3-ETV6-TRKC-G623R: 3×10^4/mL). Plates were incubated at 37° C., with 5% CO2 for 4 h. Compounds were then added to the plates with the final compound concentrations of 10000, 3333, 1111, […], 123, 41.2, 13.7, 4.6 and 1.5 nM. Plates were incubated at 37° C., with 5% CO2 for 72 h. A mixture of 20 μl MTS/100 μl medium were added to each well and the plates were incubated at 37° C., with 5% CO2 for exactly 2 h. The reaction was stopped by adding 25 μl of 10% SDS per well. The absorbance was measured at 490 nm and 650 nm (reference wavelength). IC50 was calculated using GraphPad Prism 5.0 software.

ETV6-TRKC = target: T3, ETV6-TRKC (Homo sapiens, UniProt Q16288); assay: Engineered Ba/F3 cell proliferation inhibition (MTS), ETV6-TRKC; settings: Ba/F3-ETV6-TRKC cells, 72 h
T3 construct: ETV6 (fusion partner, N-terminal part); expressed in transfected cells; the other entry of the earlier key: ETV6 (P41212, Transcription factor ETV6)
Source text: as §1, §3

KM12 cells = KM12 cells proliferation inhibition (MTS), mechanism-based TRK assay; settings: Homo sapiens, 72 h
Source text: as §1
To investigate whether a compound is able to inhibit the activity of TRK in cells, a mechanism-based assay using KM12 cells was developed. In this assay, inhibition of TRK was detected by the inhibition of KM12 cells proliferation. KM12 cells were cultured in culture flasks to 40-80% confluence in RPMI-1640 plus 10% fetal bovine serum. Cells were collected and plated onto 96-well plates at 1000 cells/well. Plates were incubated at 37° C., with 5% CO2 for 4 h. Compounds were added to the plates, the final compound concentrations were […], 123.5, 41.2, 13.7, 4.6 and 1.5 nM. Place plates at 37° C., with 5% CO2 for KM12 cells 72 h. 20 μl MTS/100 μl medium mixture solution were added to each well and incubate the plates for exactly 2 h. Stop the reaction by adding 25 μl 10% SDS per well. Measure absorbance at 490 nm and 650 nm (reference wavelength). IC50 was calculated using GraphPad Prism 5.0.

TPM3-TRKA-G595R = target: T4, TPM3-TRKA-G595R (Homo sapiens, UniProt P04629, G595R); assay: Engineered Ba/F3 cell proliferation inhibition (MTS), TPM3-TRKA-G595R; settings: Ba/F3-TPM3-TRKA-G595R cells, 72 h
T4 construct: TPM3 (fusion partner, N-terminal part); expressed in transfected cells; the other entry of the earlier key: TPM3 (P06753, Tropomyosin alpha-3 chain)
Source text: as §1, §3

ETV6-TRKC-G623R = target: T5, ETV6-TRKC-G623R (Homo sapiens, UniProt Q16288, G623R, cells depend on it); assay: Engineered Ba/F3 cell proliferation inhibition (MTS), ETV6-TRKC-G623R; settings: 72 h, read-out: ETV6-TRKC-G623R IC50
T5 construct: fused on or other part: P41212 (Transcription factor ETV6)
Source text: as §1, §2

T3 sequence (Q16288 530-825 isoform Q16288-3 limits assumed): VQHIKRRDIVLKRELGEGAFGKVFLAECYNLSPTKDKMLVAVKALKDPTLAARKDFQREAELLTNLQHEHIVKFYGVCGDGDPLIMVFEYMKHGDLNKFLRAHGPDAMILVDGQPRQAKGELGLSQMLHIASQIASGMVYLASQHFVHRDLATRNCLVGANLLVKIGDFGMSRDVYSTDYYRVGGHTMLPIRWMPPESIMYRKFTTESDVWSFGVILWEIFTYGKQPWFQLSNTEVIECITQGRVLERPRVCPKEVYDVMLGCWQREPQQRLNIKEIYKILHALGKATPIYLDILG
T2 sequence (P04629 510-796 limits assumed): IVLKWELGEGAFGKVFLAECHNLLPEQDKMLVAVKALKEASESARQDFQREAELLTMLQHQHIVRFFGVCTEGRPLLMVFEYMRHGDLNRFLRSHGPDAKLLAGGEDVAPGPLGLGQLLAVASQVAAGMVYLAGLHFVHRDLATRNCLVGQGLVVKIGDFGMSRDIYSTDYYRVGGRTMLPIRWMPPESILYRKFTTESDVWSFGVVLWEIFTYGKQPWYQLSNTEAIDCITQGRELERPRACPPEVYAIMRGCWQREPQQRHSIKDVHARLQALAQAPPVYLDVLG
T4 sequence (P04629 510-796 G595R limits assumed): as the sequence (P04629 510-796 limits assumed) above, with G86R counted along it
T5 sequence (Q16288 whole entry G623R, the tested form may be a part): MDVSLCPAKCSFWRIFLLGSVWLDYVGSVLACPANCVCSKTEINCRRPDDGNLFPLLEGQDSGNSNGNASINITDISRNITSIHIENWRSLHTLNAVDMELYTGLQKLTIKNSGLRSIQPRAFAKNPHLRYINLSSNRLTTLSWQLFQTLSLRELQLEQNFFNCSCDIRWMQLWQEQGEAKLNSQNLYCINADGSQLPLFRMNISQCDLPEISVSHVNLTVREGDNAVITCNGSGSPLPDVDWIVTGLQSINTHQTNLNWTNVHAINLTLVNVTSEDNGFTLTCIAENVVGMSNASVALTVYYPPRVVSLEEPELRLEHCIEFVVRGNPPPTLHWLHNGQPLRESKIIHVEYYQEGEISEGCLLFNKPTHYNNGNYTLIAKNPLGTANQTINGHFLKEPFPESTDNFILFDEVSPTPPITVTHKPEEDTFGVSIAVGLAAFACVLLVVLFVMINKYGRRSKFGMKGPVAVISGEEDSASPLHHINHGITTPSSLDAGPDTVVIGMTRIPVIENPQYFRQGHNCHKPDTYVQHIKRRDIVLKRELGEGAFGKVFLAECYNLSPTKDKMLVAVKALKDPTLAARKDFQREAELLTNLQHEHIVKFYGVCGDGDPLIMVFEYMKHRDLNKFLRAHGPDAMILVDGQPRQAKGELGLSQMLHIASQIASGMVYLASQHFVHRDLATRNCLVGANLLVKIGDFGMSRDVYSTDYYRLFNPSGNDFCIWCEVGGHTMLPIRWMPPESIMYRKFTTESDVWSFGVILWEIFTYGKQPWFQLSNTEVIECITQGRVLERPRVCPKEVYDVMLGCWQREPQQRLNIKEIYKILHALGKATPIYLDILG
T1 sequence (Q16620 538-822 limits assumed): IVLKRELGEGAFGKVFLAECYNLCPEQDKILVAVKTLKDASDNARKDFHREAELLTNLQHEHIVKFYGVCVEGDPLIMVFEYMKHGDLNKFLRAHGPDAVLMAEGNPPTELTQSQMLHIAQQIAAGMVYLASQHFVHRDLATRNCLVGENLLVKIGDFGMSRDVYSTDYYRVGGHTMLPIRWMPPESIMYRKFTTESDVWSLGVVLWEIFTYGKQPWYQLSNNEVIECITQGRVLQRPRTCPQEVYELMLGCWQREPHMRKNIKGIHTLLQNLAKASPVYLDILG

Q: Which results are given for `O=C(Nc1cnn2ccc(N3CC[C@H]4C[C@]43c3cc(F)ccc3F)nc12)N1CC[C@H](O)C1` [Example 1, (S)—N-(5-((1R,5S)-1-(2,5-difluorophenyl)-2-azabicyclo[3.1.0]hexan-2-yl)pyrazolo[1,5-a]pyrimidin-3-yl)-3-hydroxypyrrolidine-1-carboxamide]?
A: IC50 (AFAP1-TRKB): 14 nM; IC50 (TPM3-TRKA): 3 nM; IC50 (ETV6-TRKC): 1 nM; IC50 (KM12 cells): 1 nM

Q: Which results are given for `CC(C)c1nnc(-c2cnn3ccc(N4CC[C@H]5C[C@]54c4cc(F)ccc4F)nc23)s1` [Example 26, 2-(5-((1R,5S)-1-(2,5-difluorophenyl)-2-azabicyclo [3.1.0]hexan-2-yl)pyrazolo[1,5-a]pyrimidin-3-yl)-5-isopropyl-1,3,4-thiadiazole]?
A: IC50 (TPM3-TRKA-G595R): 15 nM; GI50 (ETV6-TRKC-G623R): 6 nM; IC50 (TPM3-TRKA): 2 nM; IC50 (ETV6-TRKC): 1 nM; IC50 (KM12 cells): 4 nM

Q: For `CC(C)(C)c1nnc(-c2cnn3ccc(N4CC[C@H]5C[C@]54c4cc(F)ccc4F)nc23)s1` [Example 27, 2-(tert-butyl)-5-(5-((1R,5S)-1-(2,5-difluorophenyl)-2-azabicyclo[3.1.0]hexan-2-yl)pyrazolo[1,5-a]pyrimidin-3-yl)-1,3,4-thiadiazole], which IC50 (TPM3-TRKA-G595R) is on record?
A: 21 nM

Q: And the GI50 (ETV6-TRKC-G623R)?
A: 20 nM

Q: And the IC50 (TPM3-TRKA)?
A: 2 nM

Q: And the IC50 (ETV6-TRKC)?
A: 11 nM

Q: And the IC50 (KM12 cells)?
A: 11 nM
